From patent US8685974B2 (Bayer CropScience AG, priority 2009, dated 2014)
Values joined by “and” are separate entries in the source; they are usually repeats but may differ in a detail not shown here. Equal entries are not always repeated. Where two headings read alike, the source gives them in different places. Marks after values point to notes of the source that are not given here.

Assays:
Sphaerotheca fuliginea = test: In vivo test on Sphaerotheca fuliginea (cucurbits powdery mildew); conditions: dose of 500 ppm; gherkin plants; grading 12 days after contamination
Experimental: In Vivo Test on Sphaerotheca fuliginea (Cucurbits Powdery Mildew)
(§1) The active ingredients tested are prepared by homogenization in a mixture of acetone/tween/DMSO, then diluted with water to obtain the desired active material.
Gherkin plants (Vert petit de Paris variety) in starter cups, sown on a 50/50 peat soil-pozzolana substrate and grown at 20° C./23° C., are treated at the cotyledon Z10 stage by spraying with the aqueous suspension described above. Plants, used as controls, are treated with an aqueous solution not containing the active material.
After 24 hours, the plants are contaminated by spraying them with an aqueous suspension of Sphaerotheca fuliginea spores (100 000 spores per ml). The spores are collected from a contaminated plants. The contaminated gherkin plants are incubated at about 20° C./25° C. and at 60/70% relative humidity.
Grading (% of efficacy) is carried out 12 days after the contamination, in comparison with the control plants.

[1] = pH 2.7; for logP value of the minor isomer (in parenthesis in column Isomer ratio [d]): main value of the example measured by method [b]
Pyrenophora teres = test: In vivo test on Pyrenophora teres (barley net blotch); conditions: dose of 500 ppm; barley plants; grading 12 days after contamination
Procedure, shortened: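 Barley plants (Plaisant) grown at 12° C. sprayed at 1-leaf stage with compound in acetone/Tween/DMSO diluted in water; 24 h later inoculated with P. teres spores (12,000 spores/ml). Incubated 24 h at ~20° C., 100% RH, then 12 days at 80% RH; graded 12 days post-inoculation against untreated controls.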

Botrytis cinerea = test: In vivo test on Botrytis cinerea (grey mould); conditions: dose of 500 ppm; gherkin plants; grading 5/7 days after contamination
Experimental: In Vivo Test on Botrytis cinerea (Grey Mould)
The active ingredients tested are prepared by homogenization in a mixture of acetone/Tween/DMSO, then diluted with water to obtain the desired active material
Gherkin plants (Vert petit de Paris variety), sown on a 50/50 peat soil-pozzolana substrate in starter cups and grown at 18-20° C., are treated at the cotyledon Z11 stage by spraying with the active ingredient prepared as described above.
(§2) Plants, used as controls, are treated with an aqueous solution not containing the active material.
After 24 hours, the plants are contaminated by depositing drops of an aqueous suspension of Botrytis cinerea spores (150,000 spores per ml) on upper surface of the leaves. The spores are collected from a 15-day-old culture and are suspended in a nutrient solution composed of: • 20 g/L of gelatine; • 50 g/L of D-fructose; • 2 g/L of NH4NO3; • 1 g/L of KH2PO4.
The contaminated cucumber plants are settled for 5/7 days in a climatic room at 15-11° C. (day/night) and at 80% relative humidity.
Grading is carried out 5/7 days after the contamination, in comparison with the control plants.

Puccinia recondita = test: In vivo test on Puccinia recondita (brown rust); conditions: dose of 500 ppm; wheat plants; grading 10 days after contamination
Experimental: In Vivo Test on Puccinia recondita (Brown Rust)
as §1
Wheat plants (Scipion variety) sown on 50/50 peat soil-pozzolana substrate in starter cups and grown at 12° C., are treated at the 1-leaf stage (10 cm tall) by spraying with the aqueous suspension described above.
as §2
After 24 hours, the plants are contaminated by spraying the leaves with an aqueous suspension of Puccinia recondita spores (100,000 spores per ml). The spores are collected from a 10-day-old contaminated wheat and are suspended in water containing 2.5 ml/l of tween 80 10%. The contaminated wheat plants are incubated for 24 hours at 20° C. and at 100% relative humidity, and then for 10 days at 20° C. and at 70% relative humidity.
Grading is carried out 10 days after the contamination, in comparison with the control plants.

Peronospora parasitica = test: In vivo test on Peronospora parasitica (crucifer downy mildew); conditions: dose of 500 ppm; cabbage plants; grading 5 days after contamination
Experimental: In Vivo Test on Peronospora parasitica (Crucifer Downy Mildew)
The active ingredients tested are prepared by homogenization in a mixture of acetone/Tween/DMSO, then diluted with water to obtain the desired active material concentration.
Cabbage plants (Eminence variety) in starter cups, sown on a 50/50 peat soil-pozzolana substrate and grown at 18-20° C., are treated at the cotyledon stage by spraying with the aqueous suspension described above.
as §2
After 24 hours, the plants are contaminated by spraying them with an aqueous suspension of Peronospora parasitica spores (50 000 spores per ml). The spores are collected from infected plant.
The contaminated cabbage plants are incubated for 5 days at 20° C., under a humid atmosphere.
Grading is carried out 5 days after the contamination, in comparison with the control plants.

Alternaria solani = test: Alternaria test (tomato) / protective; format: in vivo; conditions: 500 ppm active compound, protective spray, evaluated 7 days after inoculation
Procedure, shortened: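 Young tomato plants sprayed protectively with compound formulated in DMF with alkylaryl polyglycol ether emulsifier and diluted in water to the application rate. After inoculation, plants held at 96% rel. humidity and 20° C. Efficacy scored 7 days post-inoculation: 0% equals untreated control, 100% no infection.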

[2] = logP by HPLC at pH 2.3 (0.1% phosphoric acid / acetonitrile); format: physicochemical; conditions: method [a]: pH 2.3 with 0.1% phosphoric acid and acetonitrile as eluent
Fusarium graminearum = format: cell-based; conditions: 50 μM; for % Inhibition of DON/AcDON at 50 μM: 7 days at 28° C.
Leptosphaeria nodorum = Leptosphaeria nodorum test (wheat) / protective; format: in vivo; conditions: 500 ppm active compound, protective spray, evaluated 7-9 days after inoculation
Procedure, shortened: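 Young wheat plants sprayed protectively with compound in DMF/alkylaryl polyglycol ether emulsion diluted in water, then kept in greenhouse at 90% rel. humidity, 22° C. Scored 7-9 days after inoculation as % efficacy, 0% equal to untreated control and 100% no infection.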

[3] = logP by HPLC on reversed phase columns, method [a] (pH 2.3); format: physicochemical
Fusarium proliferatum = test: Production of fumonisin FB1 by Fusarium proliferatum (microtiter plate, HPLC-MS/MS and OD620); format: cell-based

SMILES: CC(C)=CCn1cc(-c2ccncc2)c(-c2ccc(Cl)s2)n1 [Example 7]
- protection (% of efficacy) (Sphaerotheca fuliginea): 78%
- log p [1]: 2.25^[b]

SMILES: CC(C)CC(C)n1ncc(-c2ccncc2)c1-c1ccc(Cl)s1 (stereo not drawn) [Example 14]
- protection (% of efficacy) (Sphaerotheca fuliginea): 78%
- log p [1]: 2.42^[b]

SMILES: Clc1ccc(-c2nn(C3CCCC3)cc2-c2ccncc2)s1 [Example 15]
- protection (% of efficacy) (Sphaerotheca fuliginea): 92%
- log p [1]: 2.25^[b]
- protection (Pyrenophora teres): 89%
- protection (Botrytis cinerea): 100%

SMILES: Clc1ccc(-c2nn(C3CCC3)cc2-c2ccncc2)s1 [Example 18]
- protection (Puccinia recondita): 89%
- protection (% of efficacy) (Sphaerotheca fuliginea): 83%
- log p [1]: 2.04^[b]
- protection (Pyrenophora teres): 100%
- protection (Botrytis cinerea): 100%

SMILES: CC(C)C(C)n1ncc(-c2ccncc2)c1-c1ccc(Cl)s1 (stereo not drawn) [Example 20]
- protection (Peronospora parasitica): at least 70%
- log p [1]: 2.1^[b]

SMILES: CC#CCn1cc(-c2ccncc2)c(-c2ccc(Cl)s2)n1 [Example 51]
- protection (Puccinia recondita): 75%
- protection (% of efficacy) (Sphaerotheca fuliginea): 100%
- logP value of the minor isomer (in parenthesis in column Isomer ratio [d]) [1]: (1.60)
- log p [1]: 1.81^[b]

SMILES: ClCCn1cc(-c2ccncc2)c(-c2ccc(Cl)s2)n1 [Example 55]
- logP value of the minor isomer (in parenthesis in column Isomer ratio [d]) [1]: (1.50)
- log p [1]: 1.65^[b]
- protection (Pyrenophora teres): 80%
- protection (Botrytis cinerea): 75%

SMILES: Clc1ccc(-c2nn(CC3CCCO3)cc2-c2ccncc2)s1 (stereo not drawn) [Example 56]
- protection (% of efficacy) (Sphaerotheca fuliginea): 88%
- logP value of the minor isomer (in parenthesis in column Isomer ratio [d]) [1]: (1.44)
- log p [1]: 1.6^[b]

SMILES: Clc1ccc(-c2nn(CCc3ccccc3)cc2-c2ccncc2)s1 [Example 58]
- protection (% of efficacy) (Sphaerotheca fuliginea): 81%
- log p [1]: 2.3^[b]

SMILES: Clc1ccc(-c2nn(CCN3CCOCC3)cc2-c2ccncc2)s1 [Example 60]
- protection (Peronospora parasitica): 98%
- protection (% of efficacy) (Sphaerotheca fuliginea): 75%
- log p [1]: 0.52^[b]

SMILES: FCCn1cc(-c2ccncc2)c(-c2ccc(Cl)s2)n1 [Example 62]
- protection (Peronospora parasitica): 89%
- protection (Puccinia recondita): 88%
- protection (% of efficacy) (Sphaerotheca fuliginea): 94%
- logP value of the minor isomer (in parenthesis in column Isomer ratio [d]) [1]: (1.25)
- log p [1]: 1.39^[b]
- protection (Botrytis cinerea): 98%

SMILES: CCOC(=O)Cn1cc(-c2ccncc2)c(-c2ccc(Cl)s2)n1 [Example 63]
- protection (Peronospora parasitica): 94%
- protection (% of efficacy) (Sphaerotheca fuliginea): 88%
- log p [1]: 1.67^[b]

SMILES: Clc1ccc(-c2nn(C3CC3)cc2-c2ccncc2)s1 [Example 66]
- protection (Puccinia recondita): 89% and 95%
- protection (% of efficacy) (Sphaerotheca fuliginea): 95%
- log p [1]: 1.62^[b]
- protection (Pyrenophora teres): 92%

SMILES: CC(=O)n1cc(-c2ccncc2)c(-c2ccc(Cl)s2)n1 [Example 86]
- protection (Peronospora parasitica): 92%
- protection (Puccinia recondita): 75%
- log p [1]: 2.04^[b]

SMILES: CCC(C)n1cc(-c2cc[n+]([O-])cc2)c(-c2ccc(Cl)s2)n1 (stereo not drawn) [Example 92]
- protection (% of efficacy) (Sphaerotheca fuliginea): 100%
- log p [1]: 2.56^[b]

SMILES: CCn1cc(-c2ccnc(N=C(c3ccccc3)c3ccccc3)c2)c(-c2ccc(Cl)s2)n1 [Example 311]
- efficacy (Alternaria solani): 70%
- log p [2]: 3.99^[a]

SMILES: CC(C)Nc1nccc(-c2c[nH]nc2-c2ccc(Cl)s2)n1 [Example 312]
- log p [2]: 1.79^[a]
- % Inhibition of fungal growth at 50 μM (Fusarium graminearum): 87%
- % Inhibition of DON/AcDON at 50 μM (Fusarium graminearum): 99%

SMILES: CC(C)Cn1cc(-c2ccnc(NC(=O)OC(C)C)c2)c(-c2ccc(Cl)s2)n1 [Example 319]
- log p [2]: 5.15^[a]

SMILES: CC(C)Cn1cc(-c2ccnc(NC(=O)c3cccs3)c2)c(-c2ccc(Cl)s2)n1 [Example 320]
- log p [2]: 4.62^[a]

SMILES: CCNC(=O)Nc1cc(-c2cn(CC(C)C)nc2-c2ccc(Cl)s2)ccn1 [Example 321]
- log p [2]: 3.18^[a]
- % Inhibition of fungal growth at 50 μM (Fusarium graminearum): 39%
- % Inhibition of DON/AcDON at 50 μM (Fusarium graminearum): 92%

SMILES: CC(=O)Nc1cc(-c2cn(CC(C)C)nc2-c2ccc(Cl)s2)ccn1 [Example 358]
- efficacy (Alternaria solani): 100%
- protection (Pyrenophora teres): 80%
- log p [2]: 2.96^[a]
- % Inhibition of fungal growth at 50 μM (Fusarium graminearum): 102%
- % Inhibition of DON/AcDON at 50 μM (Fusarium graminearum): 100%

SMILES: CC(C)Cn1cc(-c2ccnc(NC(=O)C3CC3)c2)c(-c2ccc(Cl)s2)n1 [Example 359]
- efficacy (Alternaria solani): 94%
- efficacy (Leptosphaeria nodorum): 90%
- protection (Pyrenophora teres): 70%
- log p [2]: 3.48^[a]
- % Inhibition of fungal growth at 50 μM (Fusarium graminearum): 62%
- % Inhibition of DON/AcDON at 50 μM (Fusarium graminearum): 100%

SMILES: COCC(=O)Nc1cc(-c2cn(CC(C)C)nc2-c2ccc(Cl)s2)ccn1 [Example 360]
- efficacy (Alternaria solani): 78%
- log p [2]: 3.78^[a]
- % Inhibition of fungal growth at 50 μM (Fusarium graminearum): 12%
- % Inhibition of DON/AcDON at 50 μM (Fusarium graminearum): 100%

SMILES: CC(C)Cn1cc(-c2ccnc(NC(=O)C3CCC3)c2)c(-c2ccc(Cl)s2)n1 [Example 361]
- efficacy (Alternaria solani): 94%
- log p [2]: 3.96^[a]

SMILES: CC(C)Cn1cc(-c2ccnc(NS(C)(=O)=O)c2)c(-c2ccc(Cl)s2)n1 [Example 362]
- log p [2]: 3.04^[a]

SMILES: CC#Cc1c(-c2ccncc2)c(-c2ccc(Cl)s2)nn1Cc1ccc(OC)cc1 [Example 420]
- log p ([3]; method [a]: pH 2.3, 0.1% phosphoric acid and acetonitrile as eluent, main isomer): 3.02^[a]
- logP value of the minor isomer ([3]; minor isomer, in parentheses in the Isomer ratio column, method [a], pH 2.3): (2.53)
- % inhibition FB1 production at 50 μM (Fusarium proliferatum; 5 days at 20° C., HPLC-MS/MS): 90%
- % inhibition fungal growth at 50 μM (Fusarium proliferatum; Fusarium proliferatum, OD620 at start and after 5 days): 21%
